We go through five compounds from DBAASP.

Among the test systems are Staphylococcus aureus MR; Escherichia coli C25; Escherichia coli MG1655; Vibrio cholerae.
What all share (test): ≥ marks a high value that may be exact or a test limit, other limits are often not marked, values filed in µg/mL are converted to µM
The test system of assay [1] is Streptococcus pneumoniae ATCC 49619.
In assay [2] the test system is Pseudomonas aeruginosa ATCC 27853.
For assay [3], the system named is Klebsiella aerogenes ATCC 13048.
Assay [4] has as its system Pseudomonas aeruginosa ATCC 19660.
For assay [5], the system named is Acinetobacter baumannii ATCC 17978D-5.
Assay [6] deals with Enterococcus faecium ATCC 700221.
The test system of assay [7] is Staphylococcus aureus ATCC 33591.
In assay [8] the test system is Staphylococcus epidermidis ATCC 51625.
Assay [9] relates to Staphylococcus aureus ATCC 25923.
The test system of assay [10] is Candida albicans ATCC 5314.
The test system of assay [11] is Staphylococcus aureus ATCC 29213.
Assay [12] relates to Pseudomonas aeruginosa CICC 11431.
For assay [13], the system named is Pseudomonas aeruginosa 25349.
The test system of assay [14] is Escherichia coli ATCC 25922.
In assay [15] the test system is Pseudomonas aeruginosa CICC 11411.
For assay [16], the system named is Pseudomonas aeruginosa 21328.
Assay [17] relates to Pseudomonas aeruginosa CICC 10419.
The subject of assay [18] is Pseudomonas aeruginosa CICC 21630.
For assay [19], the system named is Pseudomonas aeruginosa CICC 11421.
In assay [20] the test system is Pseudomonas aeruginosa CICC 21625.
The subject of assay [21] is Enterococcus faecalis ATCC 29212.
Assay [22] relates to Staphylococcus aureus MTCC 9542.
Assay [23] deals with Staphylococcus aureus ATCC 43300.
In assay [24] the test system is Bacillus subtilis MTCC 14416.

Molecules are shown by their SMILES. In brackets after ≈: the same amount, converted by molar mass.

On to `C[C@H](NC(=O)[C@H](Cc1ccccc1)NC(=O)[C@H](C)NC(=O)[C@@H](N)Cc1ccccc1)C(=O)N[C@@H](Cc1ccccc1)C(=O)N[C@@H](C)C(=O)N[C@@H](Cc1ccccc1)C(=O)N[C@@H](CCCCN)C(=O)N[C@@H](CCCCN)C(=O)N[C@@H](C)C(=O)N[C@@H](Cc1ccccc1)C(=O)N[C@@H](CCCCN)C(=O)N[C@@H](CCCCN)C(=O)N[C@@H](Cc1ccccc1)C(=O)N[C@@H](CCCCN)C(=O)N[C@@H](CCCCN)C(=O)N[C@@H](C)C(=O)N[C@@H](Cc1ccccc1)C(=O)N[C@@H](CCCCN)C(=O)N[C@@H](CCCCN)C(=O)N[C@@H](C)C(=O)N[C@@H](Cc1ccccc1)C(=O)O` [FAFAFAFKKAFKKFKKAFKKAF], for which the MIC in assay [1] was 24.2 µM (≈ 64 µg/mL); in assay [2], over 24.2 µM; in [3], 24.2 µM (≈ 64 µg/mL); in assay [4] it was 24.2 µM (≈ 64 µg/mL); in [5], 0.755 µM (≈ 2 µg/mL); in [6], 3.02 µM (≈ 8 µg/mL). The MIC is 6.04 µM (≈ 16 µg/mL) in assay [7] and 1.51 µM (≈ 4 µg/mL) in assay [8].

With `CC[C@H](C)[C@H](NC(=O)[C@@H](NC(=O)[C@H](CCCN=C(N)N)NC(=O)[C@H](Cc1ccccc1)NC(=O)[C@@H](N)Cc1ccc(O)cc1)[C@@H](C)O)C(=O)N[C@@H](CCCN=C(N)N)C(=O)N[C@@H](CCCN=C(N)N)C(=O)N[C@@H](Cc1ccccc1)C(=O)N[C@@H](Cc1ccccc1)C(=O)N[C@@H](CCCCN)C(=O)N[C@@H](CCCCN)C(=O)N[C@@H](CC(C)C)C(=O)N[C@@H](Cc1ccccc1)C(=O)N[C@@H](CCCCN)C(=O)N[C@H](C(=O)N[C@@H](CC(C)C)C(=O)N[C@@H](CCCCN)C(=O)N[C@@H](CCCCN)C(N)=O)[C@@H](C)O` [YFRTIRRFFKKLFKTLKK], the MIC (in assay [9]; in [10]; with Staphylococcus aureus MR) was 26.4 µM (≈ 64 µg/mL) in each case.

On to `CC[C@H](C)[C@H](NC(=O)CNC(=O)[C@H](CCCN=C(N)N)NC(=O)[C@H](Cc1ccc(O)cc1)NC(=O)[C@@H](NC(=O)[C@H](CCCN=C(N)N)NC(=O)[C@H](Cc1ccccc1)NC(=O)[C@H](Cc1c[nH]c2ccccc12)NC(=O)[C@H](CCCCN)NC(=O)[C@@H](N)CCCCN)C(C)C)C(=O)N[C@@H](Cc1ccc(O)cc1)C(=O)N[C@@H](CCCN=C(N)N)C(=O)N[C@@H](CCCN=C(N)N)C(=O)N[C@@H](CCCN=C(N)N)C(N)=O` [KKWFRVYRGIYRRR], for which the MIC in the assay on Escherichia coli C25 is at least 63 µM; in assay [9], 16 µM (≈ 31.7 µg/mL).

Take `NC(=O)[C@H](Cc1c[nH]c2ccccc12)NC(=O)[C@H](CCCN=C(N)N)NC(=O)[C@H](CCCN=C(N)N)NC(=O)[C@H](Cc1c[nH]c2ccccc12)NC(=O)[C@H](CCCN=C(N)N)NC(=O)[C@H](CCCN=C(N)N)NC(=O)[C@H](CCCN=C(N)N)NC(=O)[C@H](Cc1c[nH]c2ccccc12)NC(=O)[C@H](CCCN=C(N)N)NC(=O)[C@H](CCCN=C(N)N)NC(=O)[C@H](CCCN=C(N)N)NC(=O)[C@H](Cc1c[nH]c2ccccc12)NC(=O)[C@H](CCCN=C(N)N)NC(=O)[C@H](CCCN=C(N)N)NC(=O)[C@@H](N)Cc1c[nH]c2ccccc12` [WRRWRRRWRRRWRRW]: the MIC in [2] is 1.59 µM (≈ 4 µg/mL); in [11], 6.37 µM (≈ 16 µg/mL); in assay [12] it was 3.19 µM (≈ 8 µg/mL); in assay [13], 12.7 µM (≈ 32 µg/mL); in assay [14], 12.7 µM (≈ 32 µg/mL); in [15], at least 102 µM. Further, the MIC in assay [16] was at least 102 µM; in assay [17] it was at least 102 µM; in assay [18], 6.37 µM (≈ 16 µg/mL); in [19], at least 102 µM; in assay [20], at least 102 µM.

On to `CC[C@H](C)[C@@H]1NC(=O)[C@H](CCCCN)NC(=O)[C@@H](NC(=O)[C@H](CC(C)C)NC(=O)[C@@H](NC(=O)[C@H](CCC(N)=O)NC(=O)[C@@H]2CCCN2C(=O)[C@H](CC(C)C)NC(=O)[C@H](Cc2ccccc2)NC(=O)[C@H](CC(N)=O)NC(=O)[C@H](C)NC(=O)[C@H](C)NC(=O)[C@H](CC(C)C)NC(=O)CNC(=O)[C@H](C)NC(=O)[C@@H](NC(=O)[C@@H](N)Cc2c[nH]c3ccccc23)[C@@H](C)CC)[C@@H](C)CC)CSSC[C@@H](C(N)=O)NC(=O)[C@H](CCCCN)NC(=O)[C@H](CCCN=C(N)N)NC(=O)[C@H](C)NC1=O` [WIAGLAANFLPQILCKIARKC], for which the MIC in [2] is over 42.9 µM; with Escherichia coli MG1655, at least 42.9 µM; in [21], 21.5 µM (≈ 49.9 µg/mL); in assay [22], 5.37 µM (≈ 12.5 µg/mL); in [23], 10.7 µM (≈ 25 µg/mL); in [24] it was 21.5 µM (≈ 49.9 µg/mL). In the assay with Vibrio cholerae, this compound had an MIC of 10.7 µM (≈ 25 µg/mL).
